The text below walks through data of US8431533B2, “GLP-1 fusion peptides, their production and use” (Biocompatibles UK Ltd., priority 2005, dated 2013).

Where two headings read alike, the source gives them in different places. Ends that are not written are not given here.

The target in data set [1] is T1, DPPIV (Homo sapiens, UniProt P27487). Put plainly: In vitro plasma stability of GLP1CM peptides (kinetic test method). The note with it: 10% human plasma; for remaining at 9 h, 1 μM: human, pH 7.8; for DT80: time needed to degrade active GLP-1 to 80% of the 0 h value, 1 μM peptide.
Target sequence in this assay (P27487 39-766 limits assumed): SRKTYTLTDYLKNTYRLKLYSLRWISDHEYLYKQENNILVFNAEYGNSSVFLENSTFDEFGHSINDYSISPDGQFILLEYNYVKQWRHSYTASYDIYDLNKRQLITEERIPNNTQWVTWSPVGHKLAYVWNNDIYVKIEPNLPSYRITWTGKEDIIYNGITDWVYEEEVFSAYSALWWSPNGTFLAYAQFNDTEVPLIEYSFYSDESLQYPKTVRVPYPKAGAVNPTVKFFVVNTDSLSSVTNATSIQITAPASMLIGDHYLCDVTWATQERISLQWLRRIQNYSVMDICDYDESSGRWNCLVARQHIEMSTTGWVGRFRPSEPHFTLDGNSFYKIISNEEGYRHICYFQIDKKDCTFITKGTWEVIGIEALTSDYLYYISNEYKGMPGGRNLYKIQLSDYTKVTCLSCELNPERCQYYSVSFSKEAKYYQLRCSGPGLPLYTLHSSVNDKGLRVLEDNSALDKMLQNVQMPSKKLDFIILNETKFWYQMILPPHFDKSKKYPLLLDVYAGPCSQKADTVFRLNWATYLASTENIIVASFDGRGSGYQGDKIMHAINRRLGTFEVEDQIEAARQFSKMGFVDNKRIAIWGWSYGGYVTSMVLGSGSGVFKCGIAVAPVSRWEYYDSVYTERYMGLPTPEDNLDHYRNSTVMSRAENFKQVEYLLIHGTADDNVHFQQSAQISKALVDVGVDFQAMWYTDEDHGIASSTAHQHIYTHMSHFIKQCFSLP
Excerpt: (§1) Results are from triplicates in at least two independent experiments.
Data set [2] concerns the target T1, DPPIV. The data set is described as follows: in vitro. The note with it: plasma, pH 7.8.
Target sequence in this assay (P27487 39-766 limits assumed): as above
Excerpt: as §1
Data set [3] deals with T1, DPPIV.
Target sequence in this assay (P27487 39-766 limits assumed): as above
Excerpt: as §1
Data set [4] addresses T1, DPPIV. The data set is described as follows: In vitro plasma stability of GLP-1 peptides secreted from human cells. The data set is classed as in vitro ADME. Further details: human lymphocyte enriched plasma containing dipeptidylpeptidase activity; from tissue; host or cells: human lymphocyte enriched plasma. The following applies: human lymphocyte enriched plasma, 37° C., 3 or 4 hours. The text has this:
HEK293 and hTERT-MSC cells were transiently transfected with constructs, encoding the heterologous stromelysin signal sequence, which is linked to GLP-1 variants encoding the following peptides: […]
Target sequence in this assay (P27487 whole entry): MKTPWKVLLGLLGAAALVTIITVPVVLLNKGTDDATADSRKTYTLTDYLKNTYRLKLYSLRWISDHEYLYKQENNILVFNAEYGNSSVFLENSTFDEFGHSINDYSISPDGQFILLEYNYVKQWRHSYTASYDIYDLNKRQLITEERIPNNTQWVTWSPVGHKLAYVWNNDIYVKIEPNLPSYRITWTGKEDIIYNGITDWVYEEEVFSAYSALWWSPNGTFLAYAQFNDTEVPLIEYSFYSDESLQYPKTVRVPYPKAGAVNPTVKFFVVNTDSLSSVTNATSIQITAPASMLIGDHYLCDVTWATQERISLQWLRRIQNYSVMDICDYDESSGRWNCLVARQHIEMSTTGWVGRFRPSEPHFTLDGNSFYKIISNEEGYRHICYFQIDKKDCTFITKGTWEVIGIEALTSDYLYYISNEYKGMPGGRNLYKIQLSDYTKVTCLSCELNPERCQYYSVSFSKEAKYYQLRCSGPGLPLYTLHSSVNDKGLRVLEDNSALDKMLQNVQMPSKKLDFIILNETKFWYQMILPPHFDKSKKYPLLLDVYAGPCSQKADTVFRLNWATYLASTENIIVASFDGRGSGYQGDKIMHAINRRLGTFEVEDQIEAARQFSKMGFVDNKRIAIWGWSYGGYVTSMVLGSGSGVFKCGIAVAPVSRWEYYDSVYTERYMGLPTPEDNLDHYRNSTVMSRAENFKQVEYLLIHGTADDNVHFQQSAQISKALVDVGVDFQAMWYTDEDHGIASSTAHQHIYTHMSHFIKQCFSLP

The next data set has as its system BALB/c mice. Put plainly: In vivo study, immunogenicity. The note with it: 5 repeated injections, 70 μg peptide/dose, i.v., over 22 d.
Data set [5] deals with C57BL/KsJ@Rj-db (db/db) mice. The data set is described as follows: Long-term treatment of db/db mice. It counts as in vivo.
Description: Blood glucose was measured from a tail bleed after a 12-hour overnight fast 18 hours after s.c. injection of the test substances. […] The serum was analysed for insulin with the Insulin Mouse Ultrasensitive ELISA (Cat.#EIA-3440, DRG).
For data set [6], the system named is type II diabetic mice (C57BL/Ks-Lepr^db/db). Put plainly: In vivo bioactivity, blood glucose in type II diabetic mice. The following applies: 5 μg peptide s.c. twice a day, day 2, 4, 7, 10, after overnight fast. On the procedure: 11-week-old type II diabetic mice (C57BL/Ks-Lepr^db/db, Harlan) were treated with 5 μg peptide by subcutaneous injection twice a day at 9 a.m. and 5 p.m. (n=5 per group). Blood glucose was measured before (day 0) and after treatment with GLP^CM peptides (Day 2, 4, 7, 10) at 10 a.m. after an overnight fastening period. Data were presented in relation to blood glucose levels measured at day 0.

For data set [7], the system named is diabetic C57BL/KsJ@Rj-db (db/db) mice. The data set is described as follows: Dose-efficacy study in diabetic mice. The data set is classed as in vivo. On the procedure: A sixth group was treated with saline only. 7 animals were treated per group. Blood glucose was determined from tail bleeds directly before, 1 hour and 4 hours after injection. […] For every test substance a graph was prepared with the percentage difference of the blood glucose in relation to the start value for the different concentrations. […] Both models are sigmoidal fit models suitable for dose response evaluation.

Data set [8] in a line: In vitro human plasma stability of GLP-1CM peptides. The following applies: 20 ng/ml, 37° C., 3 hours, GLP-1 (Active) ELISA.
Excerpt: Dipeptidylpeptidase activity of the plasma was inhibited by an DPP-IV inhibitor (#DPP4, Biotrend).

Description for BALB/c mice: The trial was done in BALB/c mice receiving 5 repeated injections (70 μg peptide/dose, i.v.) over 22 d (n=5).
Spleens of the treated and control mice were explanted, T-cells isolated and stimulated with increasing amounts of antigene. Proliferative recall response is measured.

With `CC[C@H](C)[C@H](NC(=O)[C@H](Cc1ccccc1)NC(=O)[C@H](CCC(=O)O)NC(=O)[C@H](CCCCN)NC(=O)[C@H](C)NC(=O)[C@H](C)NC(=O)[C@H](CCC(N)=O)NC(=O)CNC(=O)[C@H](CCC(=O)O)NC(=O)[C@H](CC(C)C)NC(=O)[C@H](Cc1ccc(O)cc1)NC(=O)[C@H](CO)NC(=O)[C@H](CO)NC(=O)[C@@H](NC(=O)[C@H](CC(=O)O)NC(=O)[C@H](CO)NC(=O)[C@@H](NC(=O)[C@H](Cc1ccccc1)NC(=O)[C@@H](NC(=O)CNC(=O)[C@H](CCC(=O)O)NC(=O)[C@H](C)NC(=O)[C@@H](N)Cc1c[nH]cn1)[C@@H](C)O)[C@@H](C)O)C(C)C)C(=O)N[C@@H](C)C(=O)N[C@@H](Cc1c[nH]c2ccccc12)C(=O)N[C@@H](CC(C)C)C(=O)N[C@H](C(=O)N[C@@H](CCCCN)C(=O)NCC(=O)N[C@@H](CCCNC(=N)N)C(=O)NCC(=O)N[C@@H](CCCNC(=N)N)C(=O)N[C@@H](CCCNC(=N)N)C(=O)N[C@@H](CC(=O)O)C(=O)N[C@@H](Cc1ccccc1)C(=O)N1CCC[C@H]1C(=O)O)C(C)C` [CM3-ANA06, reference compound], at DPPIV [1], the amount remaining at 9 h, 1 μM was 11%. Besides, the DT80 on DPPIV [1] (37° C.) came out at 0.9 h.

Take `CC[C@H](C)[C@H](NC(=O)[C@H](Cc1ccccc1)NC(=O)[C@H](CCC(=O)O)NC(=O)[C@H](CCCCN)NC(=O)[C@H](C)NC(=O)[C@H](C)NC(=O)[C@H](CCC(N)=O)NC(=O)CNC(=O)[C@H](CCC(=O)O)NC(=O)[C@H](CC(C)C)NC(=O)[C@H](Cc1ccc(O)cc1)NC(=O)[C@H](CO)NC(=O)[C@H](CO)NC(=O)[C@@H](NC(=O)[C@H](CC(=O)O)NC(=O)[C@H](CO)NC(=O)[C@@H](NC(=O)[C@H](Cc1ccccc1)NC(=O)[C@@H](NC(=O)CNC(=O)[C@H](CCC(=O)O)NC(=O)[C@H](C)NC(=O)[C@@H](N)Cc1c[nH]cn1)[C@@H](C)O)[C@@H](C)O)C(C)C)C(=O)N[C@@H](C)C(=O)N[C@@H](Cc1c[nH]c2ccccc12)C(=O)N[C@@H](CC(C)C)C(=O)N[C@H](C(=O)N[C@@H](CCCCN)C(=O)NCC(=O)N[C@@H](CCCNC(=N)N)C(=O)NCC(=O)N[C@@H](CCCNC(=N)N)C(=O)N[C@@H](CCCNC(=N)N)C(=O)N[C@@H](CC(=O)O)C(=O)N[C@@H](Cc1ccccc1)C(=O)N1CCC[C@H]1C(=O)N[C@@H](CCC(=O)O)C(=O)N[C@@H](CCC(=O)O)C(=O)N[C@H](C(=O)N[C@@H](C)C(=O)O)C(C)C)C(C)C` [CM3-ANA07]: the amount remaining at 9 h, 1 μM at DPPIV [2] is 37%. At DPPIV [3], this molecule registered a DT80 of 2.0 h.

Turning to GLP1(7-37)-IP2-GLP1(7-37) [compound 3], the “resistance to DPP-IV degradation” value in the data set with DPPIV [4] was “nearly fully stabilised to DPP-IV degradation in vitro”.

As to “GLP-1(7-37) [compound 1, reference compound]”, the “resistance to DPP-IV degradation” value with DPPIV [4] is listed as “inactivated by DPP-IV in a similar way to synthetic GLP-1”.

Turning to GLP-1(7-37)-IP2-RR-GLP1(7-37) [CM1], in the data set on BALB/c mice, the toxicity entry was “no toxicity”. For the same molecule, in [5] (12-hour overnight fast, 18 h after peptide injection), the “fasted blood glucose level” value is listed as “reduced”. The “non fasted blood glucose level compared to control” value in data set [5] (1 h after s.c. peptide injection, 24 nmol/kg) was 55%. In data set [5] (weekly, 122 day treatment period, compared to the control, p<0.001), the food consumption entry was “significantly lower”. The “anti-hyperglycemia effect (blood glucose in relation to day 0)” value is “Best results” in data set [6] and “anti-hyperglycemia effect” in data set [6] (listed as SEQ ID No.:6). Further, the “fall in plasma glucose @1 h” value in data set [7] (1 hour after single s.c. injection of 1.1-3.0 nmol peptide, versus control) is on record as 50% ± 14%@1 h. For the same molecule, the “fall in plasma glucose @4 h” value in data set [7] (4 hours after single s.c. injection of 1.1-3.0 nmol peptide, versus control) amounted to 0%@4 h. For the same molecule, the “ED50 (plasma glucose)” value in data set [7] (single s.c. dose, percentage decrease of blood glucose at 1 h, sigmoidal fit) is listed as 0.61 μg/mouse.

As to “HAEGTFTSDVSSYLEGQAAKEFIAWLVKGRGAADAAAAVAIAAALG [CM3-ANA04]”, the fraction remaining at 9 h, 1 μM at DPPIV [1] is 65%. Moreover, the DT80 on DPPIV [1] (37° C.) was determined as 4.7 h.

On to “HAEGTFTSDVSSYLEGQAAKEFIAWLVKGRGAADFPEEVAIAEELG [CM3-ANA01]”, for which, on DPPIV [3], the DT80 is on record as 12.5 h and the “in vitro plasma stability, comparison” value was “higher plasma stability than CM3”.

Regarding “HAEGTFTSDVSSYLEGQAAKEFIAWLVKGRGRRDAAAAVAIAEELG [CM3-ANA03]”, at DPPIV [1] (37° C.), the “in vitro plasma stability, comparison” value is “strongly reduced stability compared to CM3” and the DT80 came out at 1.6 h. Also, at DPPIV [1], the amount remaining at 9 h, 1 μM turned out to be 30%.

Molecule “HAEGTFTSDVSSYLEGQAAKEFIAWLVKGRGRRDFAEEVAIAEELG [CM3-ANA02]” showed an amount remaining at 9 h, 1 μM at DPPIV [1] of 65%. Moreover, the DT80 at DPPIV [1] (37° C.) was 4.5 h.

For the molecule “HAEGTFTSDVSSYLEGQAAKEFIAWLVKGRGRRDFPEEVAIAEELG [CM3]”, the “stability in human plasma in vitro” value in [8] is recorded as “significantly stabilized”. For the same molecule, at DPPIV [1] (37° C.), the DT80 came out at 4.4 h.

Molecule “HAEGTFTSDVSSYLEGQAAKEFIAWLVKGRGRRDFPEEVAIAEELGRRHAC [CM3-ANA09]” yielded a share remaining at 9 h, 1 μM at DPPIV [2] of 60%. Further, the DT80 on DPPIV [3] is listed as 4.2 h.

B1: GLP-1(7-37)-IP2-RR-GLP2 (peptide)
chain: HAEGTFTSDVSSYLEGQAAKEFIAWLVKGRGRRDFPEEVAIAEELGRRHADGSFSDEMSTILDNLATRDFINWLIQTKITDKK
B1: the “stability in human plasma in vitro” value in [8] is “significantly stabilized”. For the same molecule, the “anti-hyperglycemia effect (blood glucose in relation to day 0)” value in data set [6] is reported as “anti-hyperglycemia effect”.
